This note sets out measurements from ChEMBL document CHEMBL1136608, “Azaindoles: moderately basic P1 groups for enhancing the selectivity of thrombin inhibitors” (Bioorg Med Chem Lett, 2003).

One series has as its target Serine protease 1 (Homo sapiens, UniProt P07477). The series is described as follows: Inhibition of Trypsin.
For the next series, the species on record is Homo sapiens. The series can be described thus: In vitro concentration required to double the human activated partial thromboplastin time (2x APTT). It is filed as functional.
A short description of series [1]: Area under curve was determined in dog after oral administration at 1 mg/kg. Type of series: ADME, organism-based, Canis lupus familiaris. Also noted: dose 1 mg/kg, route oral. The note with it: in vivo.
Series [2] can be described thus: Half-life in dog after oral administration at 1 mg/kg. The settings on record: in vivo. Also noted: dose 1 mg/kg, route oral. It is filed as ADME, organism-based, Canis lupus familiaris.
A short description of series [3]: Cmax in dog after oral administration at 1 mg/kg. It is filed as ADME, organism-based, Canis lupus familiaris. Also noted: dose 1 mg/kg, route oral. The note with it: in vivo.
Another series addresses Prothrombin (Homo sapiens, UniProt P00734). The series can be described thus: Inhibition of Thrombin.
The subject of the next series is Canis familiaris. The series is described as follows: Cmax in dog after oral administration at 1 mg/kg; Below the level of quantitation. It is filed as ADME, organism-based, Canis lupus familiaris. Also noted: dose 1 mg/kg, route oral. The note with it: in vivo.

Each structure is given as a SMILES string.

Sequence of Serine protease 1 (P07477 whole entry): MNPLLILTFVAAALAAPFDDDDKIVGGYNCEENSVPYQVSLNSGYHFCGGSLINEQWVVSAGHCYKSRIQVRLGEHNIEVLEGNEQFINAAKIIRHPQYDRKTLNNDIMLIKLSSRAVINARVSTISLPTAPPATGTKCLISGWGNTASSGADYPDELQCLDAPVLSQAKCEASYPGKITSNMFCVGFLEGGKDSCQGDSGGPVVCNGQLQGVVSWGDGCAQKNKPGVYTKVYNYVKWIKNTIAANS

A word on the Ki: it is a dissociation constant, usually derived from enzyme kinetics or from competition with a known ligand. A high value points to lower affinity. Take `Cc1cnc(NCCc2ccccc2)c(=O)n1CC(=O)NCc1ccc2nccn2c1C`: the affinity at Serine protease 1, expressed as Ki, was 6.8 µM.
On the same count and under the same terms, the figure for `Cc1cnc(NCCc2ccccc2)c(=O)n1CC(=O)NCc1ccc2[nH]ccc2n1` is more than 100 µM.
The compound `Cc1cnc(NCCc2ccccc2)c(=O)n1CC(=O)NCc1ccc2[nH]cnc2c1` came in with a Ki at Serine protease 1 of 2 µM.
`Cc1cnc(NCCc2ccccn2)c(=O)n1CC(=O)NCc1c[nH]c2nccc-2c1` displayed a Concentration in the series listed under Homo sapiens of 0.95 µM.
What is called AUC is concentration integrated over time. A high value points to high exposure. For orientation: half-life means the time in which the quantity being followed falls by half. Lower therefore signals fast loss. By Cmax is commonly meant the highest concentration seen after dosing. For the compound `Cc1cnc(NCCc2ccccc2)c(=O)n1CC(=O)NCc1cc2cc[nH]c2cn1`, the AUC in series [1] came out at 15.2 µM·h. Moreover, the half-life in series [2] is 3.6 h. Also, the Cmax in series [3] stood at 2690 nM. In the series filed under Homo sapiens, this compound had a Concentration of 2.63 µM. For the same compound, the Ki on Serine protease 1 is 95 µM.
For the compound `Cc1cnc(NCCc2ccccc2)c(=O)n1CC(=O)NCc1ccc2cc[nH]c2c1`, the values for the Ki on Prothrombin and at Serine protease 1 were 0.83 µM and more than 100 µM, respectively.
Take `Cc1cnc(NCCc2ccccc2)c(=O)n1CC(=O)NCc1cnc2[nH]ccc2c1`: the inhibition constant Ki at Serine protease 1 is more than 100 µM.
On to `Cc1cnc(NCCc2ccccc2)c(=O)n1CC(=O)NCc1ccn2ccnc2c1`, for which the Ki on Prothrombin turned out to be 0.27 µM; on Serine protease 1 it was 120 µM.
The like results for `Cc1cnc(NCCc2ccccc2)c(=O)n1CC(=O)NCc1ccc2nccn2c1` were, in that order, 0.14 µM and 100 µM.
Consider `Cc1cnc(NCCc2ccccn2)c(=O)n1CC(=O)NCc1ccc2[nH]ccc2c1`, for which the Ki at Serine protease 1 turned out to be 290 µM.
On the same count and under the same terms, the figure for `Cc1cnc(NCCc2ccccc2)c(=O)n1CC(=O)NCc1ccc2[nH]ccc2c1` is more than 100 µM.
The compound `Cc1nc(N)ccc1CNC(=O)Cn1c(C)cnc(NCCc2ccccc2)c1=O` [L-375378] registered an AUC in series [1] of 23.1 µM·h. Moreover, the half-life in series [2] was 3.18 h. The same compound displayed a Cmax in series [3] of 5370 nM. In the series filed under Homo sapiens, the Concentration was 0.41 µM.
As for `Cc1cnc(NCCc2ccccn2)c(=O)n1CC(=O)NCc1cnc2[nH]ccc2c1`, in series [1], the AUC was determined as 9.1 µM·h. The same compound showed a half-life in series [2] of 2.42 h. Further, in series [3], the Cmax was 2100 nM. Further, the values for the Ki on Prothrombin and on Serine protease 1 were 0.0066 µM and 140 µM, respectively.
For the compound `Cc1cnc(NCCc2ccccn2)c(=O)n1CC(=O)NCc1ccc2[nH]ccc2n1`, the Cmax result in the series on Canis familiaris was “Below the level of quantitation”. This compound also returned a Concentration in the series listed under Homo sapiens of 0.8 µM. For the same compound, the Ki on Serine protease 1 was more than 1000 µM.
Regarding `Cc1cnc(NCCc2ccccn2)c(=O)n1CC(=O)NCc1cc2cc[nH]c2cn1`, the AUC in series [1] came out at 0.17 µM·h. Also, the Cmax in series [3] is 180 nM. The compound also registered a Concentration in the series filed under Homo sapiens of 0.4 µM. At Serine protease 1, this compound showed an inhibitory constant (Ki) of 200 µM.
